The text below walks through data of ChEMBL document CHEMBL3352399, “Synthesis of aminoalkyl-substituted aurone derivatives as acetylcholinesterase inhibitors” (Bioorg Med Chem, 2015).

Each structure is given as a SMILES string.

The first data set relates to Mus musculus. The data set is described as follows: Reversal of scopolamine-induced memory deficit in ICR mouse assessed as latency time at 0.5 mg/kg, ip administered 30 min before acquisition trial by passive avoidance test (Rvb =271.0 +/- 14.49 seconds). The following applies: route intraperitoneal. Format: functional.
`COc1ccc(/C=C2\Oc3cc(OCCN4CCCCC4)ccc3C2=O)cc1OC.Cl`: the Time is on record as 88.9 s.

The next data set has as its system Mus musculus. As to the kind of experiment: Toxicity in ICR mouse assessed as behavioral changes measured as latency time during acquisition trial at 0.5 to 5 mg/kg, po administered 30 min before acquisition trial by passive avoidance test. It is filed as organism-based. Details: dose 0.5-5 mg/kg, route oral. Conditions: in vivo, 0.5 h.
On to `COc1ccc(/C=C2\Oc3cc(OCCN4CCCCC4)ccc3C2=O)cc1OC.Cl`, for which the Activity entry is recorded as “Non-toxic”.

Another data set relates to Mus musculus. The data set is described as follows: Reversal of scopolamine-induced memory deficit in ICR mouse assessed as latency time at 1 mg/kg, po administered 30 min before acquisition trial by passive avoidance test (Rvb =271.0 +/- 14.49 seconds). It is filed as functional.
Conditions: not given
In the case of `COc1ccc(/C=C2\Oc3cc(OCCN4CCCCC4)ccc3C2=O)cc1OC.Cl`, the Time was found to be 242.5 s.

With `COc1ccc2c3c1O[C@H]1C[C@@H](O)C=C[C@@]31CCN(C)C2` [GALANTAMINE], the Time worked out at 212.2 s.

A further data set concerns Mus musculus. The data set is described as follows: Reversal of scopolamine-induced memory deficit in ICR mouse assessed as latency time at 5 mg/kg, po administered 30 min before acquisition trial by passive avoidance test (Rvb =271.0 +/- 14.49 seconds). It is filed as functional.
Conditions: not given
In the case of `COc1ccc(/C=C2\Oc3cc(OCCN4CCCCC4)ccc3C2=O)cc1OC.Cl`, the Time was found to be 206.8 s.

A further data set has as its target T1, Acetylcholinesterase (Mus musculus, UniProt P21836).
T1 sequence (P21836 whole entry): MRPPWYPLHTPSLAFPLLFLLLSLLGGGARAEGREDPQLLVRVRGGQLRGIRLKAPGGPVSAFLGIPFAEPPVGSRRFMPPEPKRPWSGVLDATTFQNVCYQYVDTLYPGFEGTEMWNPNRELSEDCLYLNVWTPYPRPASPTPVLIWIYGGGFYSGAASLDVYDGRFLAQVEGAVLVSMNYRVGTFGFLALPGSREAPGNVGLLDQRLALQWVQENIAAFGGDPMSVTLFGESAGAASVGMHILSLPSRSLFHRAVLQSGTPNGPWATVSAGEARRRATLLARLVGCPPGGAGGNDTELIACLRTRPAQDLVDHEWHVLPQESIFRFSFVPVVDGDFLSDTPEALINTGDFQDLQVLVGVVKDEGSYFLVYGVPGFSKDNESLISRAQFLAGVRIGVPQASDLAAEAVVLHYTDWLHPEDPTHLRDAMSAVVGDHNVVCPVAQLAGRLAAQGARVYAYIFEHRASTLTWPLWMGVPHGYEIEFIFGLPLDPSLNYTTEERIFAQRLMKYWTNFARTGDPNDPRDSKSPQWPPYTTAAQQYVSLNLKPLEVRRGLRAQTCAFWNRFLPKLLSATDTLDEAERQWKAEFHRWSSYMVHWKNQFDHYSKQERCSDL
Conditions: not given
`O=C1/C(=C/c2ccc(O)cc2)Oc2cc(OCCN3CCCCC3)ccc21` gave an IC50 of 13.5 µM.

Compound `O=C1/C(=C/c2ccc(O)cc2)Oc2cc(OCCN3CCCC3)ccc21` displayed an IC50 of 11.1 µM.

Turning to `CCN(CC)CCOc1ccc2c(c1)O/C(=C\c1ccc(O)cc1)C2=O`, 35.5 µM corresponded to half-maximal inhibition (IC50).

`O=C1/C(=C/c2ccc(O)cc2)Oc2cc(OCCN3CCOCC3)ccc21` registered an IC50 of 186 µM.

Turning to `COc1ccccc1/C=C1\Oc2cc(OCCN3CCCCC3)ccc2C1=O`, the IC50 is 2.52 µM.

The compound `COc1cccc(/C=C2\Oc3cc(OCCN4CCCCC4)ccc3C2=O)c1` had an IC50 of 1.15 µM.

The compound `COc1ccc(/C=C2\Oc3cc(OCCN4CCCCC4)ccc3C2=O)cc1` had an IC50 of 0.9 µM.

The compound `COc1ccc(/C=C2\Oc3cc(OCCN4CCCCC4)ccc3C2=O)cc1OC.Cl` had an IC50 of 0.4 µM.

Compound `COc1cc(/C=C2\Oc3cc(OCCN4CCCCC4)ccc3C2=O)cc(OC)c1OC` yielded a half-inhibitory concentration (IC50) of 1.12 µM.

Compound `COc1ccccc1/C=C1\Oc2cc(OCCN3CCCC3)ccc2C1=O` gave an IC50 of 2.87 µM.

`COc1cccc(/C=C2\Oc3cc(OCCN4CCCC4)ccc3C2=O)c1` gave an IC50 of 1.61 µM. Against the preceding compound, the IC50 is about 1.8-fold lower.

`COc1ccc(/C=C2\Oc3cc(OCCN4CCCC4)ccc3C2=O)cc1` displayed an IC50 of 2.38 µM. The IC50 values of the last two compounds are within 1.5-fold of each other.

The compound `COc1cccc(/C=C2\Oc3cc(OCCN4CCCC4)ccc3C2=O)c1OC` showed an IC50 of 0.99 µM.

Turning to `COc1ccc(/C=C2\Oc3cc(OCCN4CCCC4)ccc3C2=O)c(OC)c1`, half-maximal inhibition (IC50) was put at 1.61 µM. This IC50 lies about 1.6-fold higher than the previous one.

Consider `COc1ccc(OC)c(/C=C2\Oc3cc(OCCN4CCCC4)ccc3C2=O)c1`, for which the IC50 stood at 1.49 µM. The IC50 values of the last two compounds are within 1.5-fold of each other.

The compound `COc1ccc(/C=C2\Oc3cc(OCCN4CCCC4)ccc3C2=O)cc1OC` had an IC50 of 0.75 µM.

`COc1cc(/C=C2\Oc3cc(OCCN4CCCC4)ccc3C2=O)cc(OC)c1`: the IC50 came out at 4.81 µM.

`COc1ccc(/C=C2\Oc3cc(OCCN4CCCC4)ccc3C2=O)c(OC)c1OC` had an IC50 of 13.7 µM.

The compound `COc1cc(/C=C2\Oc3cc(OCCN4CCCC4)ccc3C2=O)cc(OC)c1OC` had a concentration for half-maximal inhibition (IC50) of 1.56 µM.

For `COc1cccc(/C=C2\Oc3cc(OCCCN4CCCCC4)ccc3C2=O)c1`, half-maximal inhibition (IC50) was put at 0.75 µM.

`COc1ccccc1/C=C1\Oc2cc(OCCCN3CCCC3)ccc2C1=O` had an IC50 of 5.93 µM.

The compound `COc1cccc(/C=C2\Oc3cc(OCCCN4CCCC4)ccc3C2=O)c1` showed an IC50 of 4.2 µM.

Consider `COc1ccc(/C=C2\Oc3cc(OCCCN4CCCC4)ccc3C2=O)cc1`, for which the midpoint of inhibition, the IC50, lay at 3.31 µM.

Compound `COc1cccc(/C=C2\Oc3cc(OCCCN4CCCC4)ccc3C2=O)c1OC` yielded a half-inhibitory concentration (IC50) of 1.05 µM.

In the case of `COc1ccc(/C=C2\Oc3cc(OCCCN4CCCC4)ccc3C2=O)c(OC)c1`, the IC50 turned out to be 1.66 µM. This IC50 lies about 1.6-fold higher than the previous one.

Compound `COc1ccc(OC)c(/C=C2\Oc3cc(OCCCN4CCCC4)ccc3C2=O)c1` gave a half-maximal inhibitory concentration (IC50) of 4.74 µM. Against the preceding compound, the IC50 is about 2.9-fold higher.

For the compound `COc1ccc(/C=C2\Oc3cc(OCCCN4CCCC4)ccc3C2=O)cc1OC`, the half-maximal inhibitory concentration (IC50) was determined as 1.03 µM.

`COc1cc(/C=C2\Oc3cc(OCCCN4CCCC4)ccc3C2=O)cc(OC)c1` displayed an IC50 of 4.63 µM.

For the compound `COc1ccc(/C=C2\Oc3cc(OCCCCN4CCCCC4)ccc3C2=O)cc1OC`, the half-inhibitory concentration (IC50) stood at 1.52 µM.

`COc1ccc(/C=C2\Oc3cc(OCCCCCN4CCCCC4)ccc3C2=O)cc1OC` gave an IC50 of 1.26 µM.

The compound `COc1ccc(/C=C2\Oc3cc(OCCCN4CCCCC4)ccc3C2=O)cc1OC` came in with an IC50 of 0.89 µM. The IC50 values of the last two compounds are within 1.5-fold of each other.

`O=C1/C(=C/c2ccc(O)c(O)c2)Oc2cc(O)ccc21` [SULFURETIN] returned an IC50 of 699 µM.

The next data set concerns Mus musculus. As to the kind of experiment: Reversal of scopolamine-induced memory deficit in ICR mouse assessed as latency time at 2 mg/kg, po administered 30 min before acquisition trial by passive avoidance test (Rvb =271.0 +/- 14.49 seconds). It is filed as functional.
Conditions: not given
Turning to `COc1ccc(/C=C2\Oc3cc(OCCN4CCCCC4)ccc3C2=O)cc1OC.Cl`, the Time is listed as 222.4 s.
